Experimental data from publication PMC12655719, “Evaluating the Effectiveness of Reference Solvent Solubility Calculations for Binary Mixtures Based on Pure Solvent Solubility: The Case of Phenolic Acids” (Molecules, 2025).

Test: Solubility determination of saturated solutions (shaking 24 h at 25 °C, filtration, HPLC/UPLC-UV quantification)
Type: physicochemical
Conditions: for log(x1)exp: 1,4-dioxane + Water, code 1 (this work)
Experimental: In the case of binary mixtures, the organic solvent was mixed with water in appropriate molar fractions. Water was also used as a single-component solvent. For each system, three replicate samples were prepared.
The prepared samples were placed in an Orbital Shaker ES-20/60 incubator from Biosan (Riga, Latvia) and shaken for 24 h at 25 °C. The temperature was maintained with an accuracy of ±0.1 °C. During the equilibration process, the samples were agitated at a rate of 60 rpm while being thermostated.
Following equilibration, the samples were filtered through PTFE syringe filters with a 0.22 µm pore size. To prevent precipitation during this step, all test tubes, syringes, and filters were preheated to the corresponding temperature of the solution. Subsequently, an aliquot of the filtrate was transferred to a vial for chromatographic analysis.
Prior to injection, samples were diluted with methanol and injected into a Luna C18 column (250 × 10 mm) equipped with a guard column, both from Phenomenex (Torrance, CA, USA). The injection volume was 100 µL, and the column temperature was maintained at 30 °C. The mobile phase consisted of 0.5% acetic acid (A) and acetonitrile (B), applied with a linear gradient at a flow rate of 5 mL/min: initially 2% B; 1–7 min, 2–50% B; 7–9 min, 50% B; 9–9.5 min, 50–2% B; and 9–18 min, 2% B. The UV absorbance was monitored in the range of 210–400 nm. The chromatographic system was operated with MassLynx 4.1 software (Waters, […], USA). Quantitative analysis was performed using the TargetLynx application at 293 nm. All samples were analyzed in triplicate (technical replicates).
The system included the Acquity Binary Solvent Manager, Acquity Sample Manager, and Acquity Column Manager (Waters, Milford, CT, USA). Prior to analysis, samples were diluted with methanol, and 0.3 µL was injected. Separation was performed on a ACQUITY UPLC CSH C18 column (1.7 µm, 2.1 × 30 mm, Waters, Milford, CT, USA) maintained at 40 °C. UV detection was carried out at 293 nm using a tunable dual-wavelength UV/Vis detector (TUV, Waters, Milford, CT, USA). […] Each sample was analyzed in three technical replicates.
To calculate mole fractions of the solutes, the density of each saturated solution was determined by weighing 1 mL of the sample using an analytical balance (RADWAG AS 110.R2 PLUS; Radwag, Radom, Poland).

## O=C(O)/C=C/c1ccc(O)c(O)c1 [caffeic acid, Caffeic acid]
x2* 0.00, x3* 1.00, T 25.0 °C
  log(x1)exp: -4.023
x2* 0.10, x3* 0.90, T 25.0 °C
  log(x1)exp: -2.614
x2* 0.20, x3* 0.80, T 25.0 °C
  log(x1)exp: -1.897
x2* 0.30, x3* 0.70, T 25.0 °C
  log(x1)exp: -1.603
x2* 0.40, x3* 0.60, T 25.0 °C
  log(x1)exp: -1.455
1,4-dioxane-water, x2* = 0.0, 25 °C
  x1 × 102 (mole fraction of solute): 0.009 mole fraction × 102
1,4-dioxane-water, x2* = 0.1, 25 °C
  x1 × 102 (mole fraction of solute): 0.243 mole fraction × 102
1,4-dioxane-water, x2* = 0.2, 25 °C
  x1 × 102 (mole fraction of solute): 1.269 mole fraction × 102
1,4-dioxane-water, x2* = 0.3, 25 °C
  x1 × 102 (mole fraction of solute): 2.495 mole fraction × 102
1,4-dioxane-water, x2* = 0.4, 25 °C
  x1 × 102 (mole fraction of solute): 3.504 mole fraction × 102
1,4-dioxane-water, x2* = 0.5, 25 °C
  x1 × 102 (mole fraction of solute): 4.260 mole fraction × 102
1,4-dioxane-water, x2* = 0.6, 25 °C
  x1 × 102 (mole fraction of solute): 4.647 mole fraction × 102
1,4-dioxane-water, x2* = 0.7, 25 °C
  x1 × 102 (mole fraction of solute): 4.698 mole fraction × 102
1,4-dioxane-water, x2* = 0.8, 25 °C
  x1 × 102 (mole fraction of solute): 4.232 mole fraction × 102
1,4-dioxane-water, x2* = 0.9, 25 °C
  x1 × 102 (mole fraction of solute): 2.850 mole fraction × 102
1,4-dioxane-water, x2* = 1.0, 25 °C
  x1 × 102 (mole fraction of solute): 1.634 mole fraction × 102
1,4-dioxane–water, x2* = 0.0 (pure water), 25 °C
  mole fraction solubility (x1): 9.0 × 10^−5 mole fraction
1,4-dioxane–water, x2* = 0.7, 25 °C
  mole fraction solubility (x1): 4.698 × 10^−2 mole fraction
4-FM-water, x2* = 0.1, 25 °C
  x1 × 102 (mole fraction of solute): 0.785 mole fraction × 102
4-FM-water, x2* = 0.2, 25 °C
  x1 × 102 (mole fraction of solute): 2.306 mole fraction × 102
4-FM-water, x2* = 0.3, 25 °C
  x1 × 102 (mole fraction of solute): 4.043 mole fraction × 102
4-FM-water, x2* = 0.4, 25 °C
  x1 × 102 (mole fraction of solute): 6.072 mole fraction × 102
4-FM-water, x2* = 0.5, 25 °C
  x1 × 102 (mole fraction of solute): 7.935 mole fraction × 102
4-FM-water, x2* = 0.6, 25 °C
  x1 × 102 (mole fraction of solute): 10.036 mole fraction × 102
4-FM-water, x2* = 0.7, 25 °C
  x1 × 102 (mole fraction of solute): 11.977 mole fraction × 102
4-FM-water, x2* = 0.8, 25 °C
  x1 × 102 (mole fraction of solute): 13.855 mole fraction × 102
4-FM-water, x2* = 0.9, 25 °C
  x1 × 102 (mole fraction of solute): 15.930 mole fraction × 102
4-FM-water, x2* = 1.0, 25 °C
  x1 × 102 (mole fraction of solute): 17.932 mole fraction × 102
DMSO-water, x2* = 0.1, 25 °C
  x1 × 102 (mole fraction of solute): 0.209 mole fraction × 102
DMSO-water, x2* = 0.2, 25 °C
  x1 × 102 (mole fraction of solute): 1.527 mole fraction × 102
DMSO-water, x2* = 0.3, 25 °C
  x1 × 102 (mole fraction of solute): 4.718 mole fraction × 102
DMSO-water, x2* = 0.4, 25 °C
  x1 × 102 (mole fraction of solute): 11.316 mole fraction × 102
DMSO-water, x2* = 0.5, 25 °C
  x1 × 102 (mole fraction of solute): 20.824 mole fraction × 102
DMSO-water, x2* = 0.6, 25 °C
  x1 × 102 (mole fraction of solute): 28.915 mole fraction × 102
DMSO-water, x2* = 0.7, 25 °C
  x1 × 102 (mole fraction of solute): 33.598 mole fraction × 102
DMSO-water, x2* = 0.8, 25 °C
  x1 × 102 (mole fraction of solute): 34.931 mole fraction × 102
DMSO-water, x2* = 0.9, 25 °C
  x1 × 102 (mole fraction of solute): 31.904 mole fraction × 102
DMSO-water, x2* = 1.0, 25 °C
  x1 × 102 (mole fraction of solute): 22.675 mole fraction × 102
DMSO–water, x2* = 0.8, 25 °C
  mole fraction solubility (x1): 34.931 × 10^−2 mole fraction
Pure 1,4-dioxane (x2* = 1.0), 25 °C
  mole fraction solubility (x1): 1.634 × 10^−2 mole fraction
Pure 4-FM (4-formylmorpholine, x2* = 1.0), 25 °C
  mole fraction solubility (x1): 17.932 × 10^−2 mole fraction
Pure DMSO, 25 °C
  mole fraction solubility (x1): 22.675 × 10^−2 mole fraction
